Experimental data: ChEMBL document CHEMBL5614418, “Discovery of novel dihydropyrrolidone-thiadiazole compound crosstalk between the YycG/F two-component regulatory pathway and cell membrane homeostasis to combat methicillin-resistant Staphylococcus aureus” (Eur J Med Chem, 2024)
In brackets after ≈: the same amount, converted by molar mass. Activity calls are given as the source filed them. The calls are words filed in the database; no cut-off is given here.

Columns and labels:
[1] = test system: Staphylococcus epidermidis; experiment: Synergistic bactericidal activity against Staphylococcus epidermidis SE1457 assessed as persister cells killing by measuring log reduction in bacterial count at 8 times MIC measured after 72 hrs in presence of daptomycin; type: functional
[2] = test system: Staphylococcus epidermidis; experiment: Induction of resistance development in Staphylococcus epidermidis SE1457 assessed as fold increase in MIC at 1/2 MIC incubated for 16 hrs after 20 serial passages; type: functional
[3] = test system: Staphylococcus epidermidis; experiment: Synergistic antibacterial activity against Staphylococcus epidermidis SE1457 assessed as fold increase in MIC in presence of daptomycin; type: functional
Staphylococcus aureus [4] = experiment: Downregulation of fructosre-1, 6-diphosphate level in methicillin sensitive Staphylococcus aureus SA113 at 1/2 MIC incubated for 30 mins; type: functional
Staphylococcus aureus [5] = experiment: Antibacterial activity against methicillin sensitive Staphylococcus aureus SA113 assessed as fold increase in MIC in presence of phosphatidyl ethanolamine by chequerboard microdilution assay; type: functional
Staphylococcus aureus [6] = experiment: Antibacterial activity against methicillin resistant Staphylococcus aureus USA300 infected in BALB/c mouse pneumonia model assessed as log reduction in lung bacterial count at 20 mg/kg, ip administered every 12 hrs for 3 times and measured after 48 hrs; type: functional
Staphylococcus aureus [7] = experiment: Antibacterial activity against methicillin sensitive Staphylococcus aureus SA113 assessed as fold increase in MIC in presence of cardiolipin by chequerboard microdilution assay; type: functional
Staphylococcus aureus [8] = experiment: Antibacterial activity against methicillin sensitive Staphylococcus aureus SA113 in presence of oleic acid; type: functional, organism-based
Staphylococcus aureus [9] = experiment: Antibacterial activity against methicillin resistant Staphylococcus aureus YUSA151; type: functional
Staphylococcus aureus [10] = experiment: Antibacterial activity against methicillin sensitive Staphylococcus aureus SA113 by broth microdilution method; type: functional
[11] = Toxicity in BALB/c mouse assessed as change in Na+ level at 50 mg/kg, ip measured after 1 to 3 days; type: organism-based; details: in vivo, time 1-3 day
Staphylococcus aureus [12] = experiment: Antibacterial activity against methicillin sensitive Staphylococcus aureus SA113 assessed as increase in membrane permeability at 1 to 4 times MIC incubated for 30 mins by PI staining based fluorescence assay; type: functional, organism-based
Staphylococcus aureus [13] = experiment: Antibacterial activity against methicillin sensitive Staphylococcus aureus SA113 in presence of palmitic acid; type: functional, organism-based
Staphylococcus aureus [14] = experiment: Antibacterial activity against methicillin sensitive Staphylococcus aureus SA113 assessed as fold increase in MIC in presence of peptidoglycan by chequerboard microdilution assay; type: functional
[15] = test system: Staphylococcus epidermidis; experiment: Induction of matured biofilm eradication in Staphylococcus epidermidis SE1457 assessed as reduction in bacterial survival in biofilm at 8 times MIC incubated for 48 hrs in presence of daptomycin by SYTO 9 staining based confocal fluorescence microscopic analysis; type: functional
[16] = test system: Staphylococcus epidermidis; experiment: Inhibition of bacterial growth in Staphylococcus epidermidis SE1457 at 1/2 MIC concentration measured upto 16 hrs; type: functional, organism-based
[17] = test system: Staphylococcus epidermidis; experiment: Induction of matured biofilm eradication in Staphylococcus epidermidis SE1457 assessed as log reduction in bacterial count in biofilm at 8 times MIC incubated for 48 hrs by agar plate method; type: functional
Enterococcus faecium = experiment: Bactericidal activity against Enterococcus faecium EFM64; type: functional
Cell membrane = experiment: Induction of cell membrane disruption in methicillin sensitive Staphylococcus aureus SA113 at 4 times MIC incubated for 2 hrs by TEM analysis; type: cell membranes
Staphylococcus aureus [18] = experiment: Induction of resistance development in methicillin sensitive Staphylococcus aureus SA113 assessed as fold increase in MIC at 1/2 MIC incubated for 16 hrs after 20 serial passages; type: functional
Staphylococcus aureus [19] = experiment: Antibacterial activity against methicillin resistant Staphylococcus aureus YUSA145; type: functional
[20] = Cytotoxicity against human LX2 cells incubated for 24 hrs by CCK8 assay; type: toxicity, cell-based; details: LX-2 cells
Staphylococcus aureus [21] = experiment: Synergistic antibacterial activity against methicillin resistant Staphylococcus aureus USA300 in presence of linezolid; type: functional, organism-based
[22] = test system: Staphylococcus epidermidis; experiment: Induction of matured biofilm eradication in Staphylococcus epidermidis SE1457 assessed as log reduction in bacterial count in biofilm at 8 times MIC incubated for 48 hrs in presence of daptomycin by agar plate method; type: functional
[23] = test system: Staphylococcus epidermidis; experiment: Antibacterial activity against Staphylococcus epidermidis SE1457 in presence of oleic acid; type: functional, organism-based
Staphylococcus aureus [24] = experiment: Bactericidal activity against Staphylococcus aureus SA113; type: functional
Staphylococcus aureus [25] = experiment: Downregulation of pflA expression level in methicillin sensitive Staphylococcus aureus SA113 at 1/2 MIC incubated for 2 hrs by MS/MS analysis; type: functional
Staphylococcus aureus [26] = experiment: Downregulation of acetyl-CoA level in methicillin sensitive Staphylococcus aureus SA113 at 1/2 MIC incubated for 30 mins; type: functional
Staphylococcus aureus [27] = experiment: Induction of matured biofilm eradication in methicillin resistant Staphylococcus aureus YUSA145 assessed as log reduction in bacterial count in biofilm at 8 MIC incubated for 48 hrs by agar plate method; type: functional
[28] = Toxicity in BALB/c mouse assessed as change in AST level at 50 mg/kg, ip measured after 1 to 3 days; type: organism-based; details: in vivo, time 1-3 day
[29] = test system: Staphylococcus epidermidis; experiment: Bactericidal activity against Staphylococcus epidermidis SE1457 assessed as planktonic cells killing by measuring log reduction in bacterial count at 2 to 8 times MIC measured after 24 hrs; type: functional
[30] = test system: Staphylococcus epidermidis; experiment: Antibacterial activity against Staphylococcus epidermidis SE1457 by broth microdilution method; type: functional
Staphylococcus aureus [31] = experiment: Antibacterial activity against methicillin resistant Staphylococcus aureus USA300 infected in BALB/c mouse pneumonia model assessed as increase in mouse survival rate at 20 mg/kg, ip administered every 12 hrs for 3 times and measured after 48 hrs; type: functional, organism-based
Escherichia coli = experiment: Antibacterial activity against Escherichia coli; type: functional, organism-based
[32] = test system: Staphylococcus epidermidis; experiment: Synergistic antibacterial activity against Staphylococcus epidermidis SE1457 assessed as fractional inhibitory concentration index in presence of daptomycin; type: functional
[33] = Toxicity in BALB/c mouse assessed as change in BUN level at 50 mg/kg, ip measured after 1 to 3 days; type: organism-based; details: in vivo, time 1-3 day
[34] = Hemolytic activity against human erythrocytes measured after 1 hr; type: toxicity, cell-based, Erythrocyte
Staphylococcus aureus [35] = experiment: Antibacterial activity against methicillin sensitive Staphylococcus aureus SA113 assessed as fold increase in MIC in presence of phosphatidyl glycerol by chequerboard microdilution assay; type: functional
Staphylococcus aureus [36] = experiment: Antibacterial activity against methicillin resistant Staphylococcus aureus USA300 infected in BALB/c mouse wound model assessed as log reduction in wound bacterial load at 20 mg/kg, ip administered every 12 hrs for 3 times and measured after 48 hrs; type: functional
Acinetobacter baumannii = experiment: Antibacterial activity against Acinetobacter baumannii; type: functional, organism-based
Staphylococcus aureus [37] = experiment: Synergistic antibacterial activity against methicillin resistant Staphylococcus aureus USA300 assessed as fractional inhibitory concentration index in presence of daptomycin; type: functional
Staphylococcus aureus [38] = experiment: Antibacterial activity against methicillin sensitive Staphylococcus aureus SA113 assessed as fold increase in MIC in presence of phosphatidylcholine by chequerboard microdilution assay; type: functional
Staphylococcus aureus [39] = experiment: Downregulation of arcC1 expression level in methicillin sensitive Staphylococcus aureus SA113 at 1/2 MIC incubated for 2 hrs by MS/MS analysis; type: functional
Staphylococcus aureus [40] = experiment: Bactericidal activity against methicillin resistant Staphylococcus aureus USA300 assessed as planktonic cells killing by measuring log reduction in bacterial count at 2 to 8 times MIC measured after 24 hrs; type: functional
[41] = Binding affinity to biotin-labeled cardiolipin (unknown origin) by biolayer interferometry

O=C(C1=C(O)C(=O)N(c2nnc(SCc3ccccc3Cl)s2)C1c1ccccc1O)c1cc2ccccc2o1 (configuration not stated)
log(activity) [1]: 3
Activity [2]: inactive
fold change (FC) [3]: 2
Activity (Staphylococcus aureus [4]): Active
fold change (FC) (Staphylococcus aureus [5]): 16
log(activity) (Staphylococcus aureus [6]): 2
fold change (FC) (Staphylococcus aureus [7]): 16
Activity (Staphylococcus aureus [8]): inactive
MIC (Staphylococcus aureus [9]): 12.5 µM (≈ 7.2 µg/mL)
MIC50 (Staphylococcus aureus [10]): ≥ 50 µM
MIC90 (Staphylococcus aureus [10]): ≥ 50 µM
Activity [11]: Non-Toxic
Activity (Staphylococcus aureus [12]): Active
Activity (Staphylococcus aureus [13]): inactive
fold change (FC) (Staphylococcus aureus [14]): 16
Activity [15]: >70%
growth inhibition (GI) [16]: Active
log(activity) [17]: 1
MBC (Enterococcus faecium): 100 µM (≈ 57.6 µg/mL)
Activity (Cell membrane): Active
Activity (Staphylococcus aureus [18]): inactive
MIC (Staphylococcus aureus [19]): 12.5 µM (≈ 7.2 µg/mL)
CC50 at 24 h [20]: > 100 µM
Activity (Staphylococcus aureus [21]): inactive
log(activity) [22]: 3
Activity [23]: inactive
MBC (Staphylococcus aureus [24]): 25 µM (≈ 14.4 µg/mL)
Activity (Staphylococcus aureus [25]): Active
Activity (Staphylococcus aureus [26]): Active
log(activity) (Staphylococcus aureus [27]): 1
Activity [28]: Non-Toxic
log(activity) [29]: 2.7
MIC50 [30]: ≥ 50 µM
MIC90 [30]: ≥ 50 µM
Activity (Staphylococcus aureus [31]): Active
Activity (Escherichia coli): Active
fractional inhibitory concentration index (FICI) [32]: <=0.5
Activity [33]: Non-Toxic
HC50 at 1 h [34]: > 200 µM
fold change (FC) (Staphylococcus aureus [35]): 16
log(activity) (Staphylococcus aureus [36]): 1
Activity (Acinetobacter baumannii): Active
fractional inhibitory concentration index (FICI) (Staphylococcus aureus [37]): <=0.5
fold change (FC) (Staphylococcus aureus [38]): 16
Activity (Staphylococcus aureus [39]): Active
log(activity) (Staphylococcus aureus [40]): 2.7
Kd [41]: 44.1 µM
